In patent publication US10172356B2, “Bipyridine compound and use of same for noxious arthropod control” (Sumitomo Chemical Company, Limited, priority 2015, dated 2019):

Experiments:
Assay type in all cases: in vivo
[1] = tested on: cotton aphid (Aphis gossypii); test: Comparative Experiment 3 (method of Test Example 3: cotton aphid, irrigation, 200 ppm); settings: cotton aphid on cucumber seedling, irrigation into plant foot, 200 ppm (method of Test Example 3)
Experimental: Cucumber seedling (on the developmental stage of the second true leaf) was planted in a polyethylene cup, and the diluted solutions 5 mL were irrigated into the plant foot, and the plants were held at 25° C. in a greenhouse for 7 days. Approximately 30 heads of cotton aphid (Aphis gossypii) (all stages of life) were inoculated onto the cucumber leaves and the plants were held in a greenhouse for additional 6 days, and then the number of the surviving […] parasitic on the cucumber leaves was examined and the controlling value was calculated by the following equation. Controlling value (%)={1-(Cb×Tai)/(Cai×Tb)}×100 wherein the symbols in the formula represent the following descriptions. Cb: Number of the insects before treatment in untreated area; Cai: Number of the surviving parasitic insects at the time of the investigation in untreated area; Tb: Number of the insects before treatment in treated area; Tai: Number of the surviving parasitic insects at the time of the investigation in treated area; Here the “untreated area” represents an area that was sprayed by a diluted solution of the formulation described in the Formulation Example 5 without the compound A with water in the same amount as that of the treated area. […] Here A represents 100%, B represents 90 to 99%, C represents 60 to 89%, D represents 30 to 59% and represents 0 to 29% as a control value.

[2] = tested on: cotton aphid (Aphis gossypii); test: Comparative Experiment 2 (method of Test Example 2: cotton aphid, spray, 200 ppm); settings: cotton aphid on cucumber seedling, 200 ppm (method of Test Example 2)
Experimental: Cucumber seedling (on the developmental stage of the first true leaf) was planted in a polyethylene cup and 30 heads of cotton aphid (Aphis gossypii) (all stages of life) were released onto the leaves of the cucumber and allowed to stand for 1 day. The diluted solutions 20 mL were sprayed into the seedling. Cucumber (cv; Sagami-hanjiro-fushinari) was grown in a polyethylene cup until the first true leaf was developed. Approximately 30 heads of cotton aphid (Aphis gossypii) (including the adults and the larvae) was released onto the leaves of the […] and next day, the above-mentioned testing drug dilutions 20 mL were sprayed. After 6 days, the number of the surviving insects that were parasitic on the leaves of the cucumber was examined and the controlling value was calculated by the following equation. Controlling value (%)={1-(Cb×Tai)/(Cai×Tb)}×100 wherein the symbols in the formula represent the following descriptions. Cb: Number of the insects before treatment in untreated area; Cai: Number of the surviving parasitic insects at the time of the investigation in untreated area; Tb: Number of the insects before treatment in treated area; Tai: Number of the surviving parasitic insects at the time of the investigation in treated area; Here the “untreated area” represents an area that was sprayed by a diluted solution of the formulation described in the Formulation Example 5 without the compound A with water in the same amount as that of the treated area. […] Here A represents 100%, B represents 90 to 99%, C represents 60 to 89%, D represents 30 to 59% and represents 0 to 29% as a control value.

[3] = tested on: brown planthopper (Nilaparvata lugens); test: Comparative Experiment 5 (method of Test Example 5: brown planthopper, spray, 200 ppm); settings: brown planthopper on rice seedling, 200 ppm (method of Test Example 5)
Experimental: Rice seedling (on the developmental stage of the second true leaf) was planted in a polyethylene cup, and the diluted solutions 10 mL were sprayed. After air drying, 20 heads of 3rd to 4th instar larvae of brown planthopper (Nilaparvata lugens) were released onto the rice leaves and the plants were held at 25° C. in a greenhouse. After 6 days, the number of the surviving insects that were parasitic on the leaves of the rice was examined and the controlling value was calculated by the following equation. Controlling value (%)={1-(Cb×Tai)/(Cai×Tb)}×100 wherein the symbols in the formula represent the following descriptions. Cb: Number of the insects before treatment in untreated area; Cai: Number of the surviving parasitic insects at the time of the investigation in untreated area; Tb: Number of the insects before treatment in treated area; Tai: Number of the surviving parasitic insects at the time of the investigation in treated area; Here the “untreated area” represents an area that was sprayed by a diluted solution of the formulation described in the Formulation Example 5 without the compound A with water in the same amount as that of the treated area. […] Here A represents 100%, B represents 90 to 99%, C represents 60 to 89%, D represents 30 to 59% and represents 0 to 29% as a control value.

[4] = tested on: western corn rootworm (Diabrotica virgifera virgifera); test: Test Example 10: western corn rootworm on corn seedling immersed in diluted solution, 500 ppm; settings: 120 h, corn seedling immersed 30 seconds, second instar larvae, after 5 days, 25° C., read-out: Mortality of insects
Experimental: The compound S-1 was mixed with a mixed solution of acetone and polyoxyethylene sorbitan mono-cocoate (acetone and polyoxyethylene sorbitan mono-cocoate=95 : 5 (weight ratio)) a ratio of 50 μL of the mixed solution per 1 mg of the compound S-1, and the resulting mixtures were then diluted with ion-exchange water containing 0.03% by volume of shindain (registered trademark, manufactured by Sumitomo Chemical Co. Ltd.) so that the concentration of the compound S-1 was set to 500 ppm to prepare the diluted solution of the compound S-1.
Corns (Xea mays) were sown on a tray overlaid with damped KimWipes (registered trademark). After corns were grown for 5 days, the entire seedling of the corn was immersed into the diluted solution for 30 seconds. After the seedling was dried, two grains of the seedling were installed in a plastic petri dish ([…]), and ten heads of western corn rootworm (Diabrotica virgifera virgifera) at the second instar larval stages were released onto the petri dish and the petri dish was covered with the lid. The petri dish was held at 25° C. and after 5 days, the number of died insects was counted and the mortality of insects was calculated by the following equation. Mortality of insects (%)=(Number of dead insects/Number of tested insects)×100
Similarly, using the compounds S-2, S-3, S-7, S-10, O-1 and O-2 instead of the compound S-1, the tests were carried out.

[5] = tested on: cabbage moth (Plutella xylostella); test: Test Example 7: cabbage moth on sprayed cabbage, 500 ppm; settings: 120 h, 20 mL/cup sprayed on cabbage, second instar larvae, after 5 days, 25° C., read-out: Mortality of insects
Experimental: Each of the compounds S-1, S-5, S-7, S-8, S-9, S-10, O-1, and O-2 was made to a formulation according to a similar method to that described in the Formulation example 5 and was then diluted with water so that each of the active ingredient concentration was set to 500 ppm to prepare each of the diluted solution.
A cabbage in the third leaf stage was planted in a polyethylene cup, and thereto was sprayed the diluted solution in ratio 20 mL/cup. After the above-mentioned dilutions were dried, and the stem and leaf thereof was cut and then was stalled in a 50 mL cup, and five heads of cabbage moth (Plutella xylostella) at the second instar larval stages were released into the cup and the cup was covered with the lid. The cup was held at 25° C. and after 5 days, the number of died insects was counted and the mortality of insects was calculated by the following equation. Mortality of insects (%)=(Number of dead insects/Number of tested insects)×100

[6] = tested on: cabbage moth (Plutella xylostella); test: Test Example 8: cabbage moth on sprayed cabbage, 200 ppm; settings: 120 h, 20 mL/cup sprayed on cabbage, second instar larvae, after 5 days, 25° C., read-out: Mortality of insects
Experimental: Each of the compounds S-7, S-8, S-9, S-10, and O-2 was made to a formulation according to a similar method to that described in the Formulation example 5 and was then diluted with water so that each of the active ingredient concentration was set to 200 ppm to prepare each of the diluted solution.
A cabbage in the third leaf stage was planted in a polyethylene cup, and thereto was sprayed the diluted solution in a ratio of 20 mL/cup. After the above-mentioned dilutions were dried, and the stem and leaf thereof was cut and then was installed in a 50 mL cup, and five heads of cabbage moth (Plutella xylostella) at the second instar larval stages were released into the cup and the cup was covered with the lid. The cup was held at 25° C. and after 5 days, the number of died insects was counted and the mortality insects was calculated by the following equation. Mortality of insects (%)=(Number of dead insects/Number of tested insects)×100

[7] = tested on: female adult housefly (Musca domestica); test: whole plant or invertebrate; settings: 24 h, read-out: Mortality of insects
Experimental: Each of the compounds S-2, S-3, S-7, S-8, and N-1 was made to a formulation according to a similar method to that described in the Formulation example 5 and was then diluted with water so that each of the active ingredient concentration was set to 500 ppm to prepare each of the diluted solution.
The bottom of the polyethylene cup having 5.5 cm diameter was matted with the same size of a filter paper, and 0.7 mL of the diluted solution was added dropwise to the filter paper and 30 mg sucrose as bait was placed in the cup uniformly. Ten (10) heads of female adult housefly (Musca domestica) were released into the polyethylene cup and the cup was covered with the lid. After 24 hours, the life and death of housefly was examined and the number of died insects was counted and the mortality of insects was calculated by the following equation. Mortality of insects (%)=(Number of dead insects/Number of tested insects)×100

SMILES | control value, Comparative Experiment 3 [1] | control value, Comparative Experiment 2 [2] | control value, Comparative Experiment 5 [3] | mortality at 500 ppm [4] [%] | mortality at 500 ppm [5] [%] | mortality at 200 ppm [6] [%] | mortality at 500 ppm [7] [%]
CCS(=O)(=O)c1cccnc1-c1ccc([S+]([O-])C(F)(F)F)cn1 (centres unmarked) [Compound S-8] | A (A represents 100%) | A (A represents 100%) | A (A represents 100%) |  |  |  | 
CCS(=O)(=O)c1cccnc1-c1ccc(OS(=O)(=O)CC(F)(F)F)cn1 [Compound O-2] |  |  |  | ≥ 80 | ≥ 80 | ≥ 80 | 
CCS(=O)(=O)c1cccnc1-c1ccc(SCC(F)(F)F)cn1 [Compound S-1] | B (B represents 90 to 99%) | A (A represents 100%) | A (A represents 100%) |  | ≥ 80 |  | 
[O-][S+](c1ccc(-c2ccc(C(F)(F)F)cc2Cl)nc1)C(F)(F)F (centres unmarked) [Compound V-12, reference compound] | E (represents 0 to 29% as a control value) | E (represents 0 to 29% as a control value) | E (represents 0 to 29% as a control value) |  |  |  | 
FC(F)(F)Sc1ccc(-c2ccc(C(F)(F)F)cc2Cl)nc1 [Compound V-11, reference compound] | E (represents 0 to 29% as a control value) | E (represents 0 to 29% as a control value) | E (represents 0 to 29% as a control value) |  |  |  | 
CCS(=O)(=O)c1cccnc1-c1ccc(SC(F)(F)F)cn1 [Compound S-7] | A (A represents 100%) | A (A represents 100%) | A (A represents 100%) | ≥ 80 | ≥ 80 | ≥ 80 | 100
CCS(=O)(=O)c1cccnc1-c1ccc(OS(=O)(=O)C(F)(F)F)cn1 [Compound O-1] |  |  |  | ≥ 80 | ≥ 80 |  | 
CCS(=O)(=O)c1cccnc1-c1ccc(SCC(F)(F)C(F)(F)F)cn1 [Compound S-4] |  |  |  | ≥ 80 |  |  | 
FC(F)(F)CSc1ccc(-c2ccc(C(F)(F)F)cc2)nc1 [Compound V-7, reference compound] | E (represents 0 to 29% as a control value) | E (represents 0 to 29% as a control value) | D (D represents 30 to 59%) |  |  |  | 
